Data on one molecule can be found in patent US4931270A, “Method for detecting dopaminergic diseases using fluorine-18 radiolabelled D2 dopamine receptor ligands” (Nelson Research & Development, priority 1988, dated 1990).

Assay [1] concerns the target T1, D2 -dopamine (Bos taurus, UniProt P20288).
T1 construct: Membranes derived from bovine striatum (for assaying dopamine receptors); from tissue; host or cells: bovine striatum membranes
The assay is described as follows: Radioligand binding (displacement of 3H-N-0437), bovine striatal membranes. The procedure: (§1) The selectivity of 2-[N-3-fluoropropyl-N-2-(2 thienyl)ethylamine]-5-hydroxytetralin has been investigated using radioligand binding assays to determine the binding affinity at different receptor types, namely D1 and D2 dopamine and α-adrenergicreceptor sites.
Membranes derived from bovine striatum (for assaying dopamine receptors) and rat cerebral cortex (for assaying α-adrenergic receptors) were prepared as follows. The tissue was homogenized using a tissue disrupter and centrifuged. The pellet was washed by resuspension and centrifugation. The bovine striatal membranes were […] and thawed just prior to use.
The radioligands ^3 H-prazosin, H^3 [((R)-(+)-8 chloro-2, 3, 4, 5-tetrahydro-3-methyl-5-phenyl-H-3-benzazepin-7-ol](^3 H-SCH23390), and H^3 [5-hydroxy-2-(N-n-propyl-N-2-[2-thienyl]ethylamino)tetralin] (^3 H-N-0437) were used to label α-adrenegic, D1 -dopamine and D2 -dopamine receptors, respectively. Increasing concentrations of 2-[N-3-fluoropropyl-N-2-(2-thienyl)ethylamine]-5-hydroxy-tetralin were used to displace the binding of these radioligands from their respective receptors. Competition binding curves were hand drawn to fit the data, and IC50 values were determined graphically. The IC50 value indicates the concentration of test drug required to displace from attachment at the receptor site of interst 50 percent of the ligands of known affinity already in attachment there.
On the technique in general: Loss of bound radioactivity is the signal in a displacement assay; it reports binding, not function.

For assay [2], the target named is T2, D1 -dopamine (Bos taurus, UniProt Q95136).
T2 construct: Membranes derived from bovine striatum (for assaying dopamine receptors); from tissue; host or cells: bovine striatum membranes
T2 sequence (Q95136 whole entry): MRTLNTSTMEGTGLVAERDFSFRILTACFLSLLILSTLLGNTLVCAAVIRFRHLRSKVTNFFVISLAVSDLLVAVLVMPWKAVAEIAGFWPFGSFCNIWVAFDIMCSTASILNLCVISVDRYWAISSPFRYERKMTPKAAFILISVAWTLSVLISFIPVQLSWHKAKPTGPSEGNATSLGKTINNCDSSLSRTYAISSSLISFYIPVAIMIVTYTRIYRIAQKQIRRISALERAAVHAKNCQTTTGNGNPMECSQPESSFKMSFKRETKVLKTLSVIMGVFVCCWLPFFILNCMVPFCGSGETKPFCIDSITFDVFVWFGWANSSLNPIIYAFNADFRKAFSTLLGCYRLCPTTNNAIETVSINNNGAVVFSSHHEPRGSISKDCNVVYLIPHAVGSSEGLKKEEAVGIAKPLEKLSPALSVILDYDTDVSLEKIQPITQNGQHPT
The assay is described as follows: Radioligand binding (displacement of 3H-SCH23390), bovine striatal membranes. The conditions noted are these: bovine striatum membranes. As for the experimental part: as §1
(§2) Membranes derived from bovine striatum (for assaying dopamine receptors) and rat cerebral cortex (for assaying α-adrenergic receptors) were prepared as follows. The tissue was homogenized using a tissue disrupter and centrifuged. The pellet was washed by resuspension and centrifugation. The bovine striatal membranes were […] and thawed just prior to use. […]

The target of assay [3] is α-adrenergic. The assay is described as follows: Radioligand binding (displacement of 3H-prazosin), rat cerebral cortex membranes. As for the experimental part: as §1, §2

T1 sequence (P20288 whole entry): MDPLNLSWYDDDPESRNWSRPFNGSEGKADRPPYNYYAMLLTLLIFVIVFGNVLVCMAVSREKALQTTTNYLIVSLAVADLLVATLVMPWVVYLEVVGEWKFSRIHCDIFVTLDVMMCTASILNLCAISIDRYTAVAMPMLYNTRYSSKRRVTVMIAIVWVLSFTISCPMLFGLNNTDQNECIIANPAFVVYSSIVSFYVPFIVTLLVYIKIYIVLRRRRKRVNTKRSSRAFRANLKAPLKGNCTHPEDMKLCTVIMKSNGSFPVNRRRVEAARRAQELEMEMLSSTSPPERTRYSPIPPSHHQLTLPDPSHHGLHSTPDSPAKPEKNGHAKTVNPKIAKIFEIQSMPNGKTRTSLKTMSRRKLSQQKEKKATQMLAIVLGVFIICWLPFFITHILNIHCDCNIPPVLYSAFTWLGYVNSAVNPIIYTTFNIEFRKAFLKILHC

What is called IC50 is the concentration at which inhibition is half-maximal. A low value points to greater potency. As for `Oc1cccc2c1CCC(N(CCCF)CCc1cccs1)C2` (stereo not drawn) [2-[N-3-Fluoropropyl-N-2-(2-thienyl)ethylamino]-5-hydroxytetralin], the “affinity for dopamine D2 receptor sites (in words)” value in assay [1] is “unexpectedly high affinity”. In addition, the 50% inhibitory concentration (IC50) was 0.00103 ± 0.00049 µM in assay [1] (D2 -dopamine, 3H-N-0437, bovine striatum membranes); over 10 µM in assay [2]; 5.7 µM in assay [3]. For the same molecule, the “times more potent in binding to D2 -dopamine receptors than to α-adrenergic receptors” value in assay [1] (D2 versus α-adrenergic) was “more than 5000 times”. In assay [1] (versus D1 and α-adrenergic), the “selectivity for D2 -dopamine receptors (in words)” value is recorded as “selective for D2 -dopamine receptors”.
